The values below come from paper PMC8279484 (Journal of Medicinal Chemistry, 2021).

Each structure is given as a SMILES string.

What all share (type): cell-based, human
For one series, the system named is NF-κB. As to the kind of experiment: LPS-induced NF-κB-driven luciferase gene reporter assay in THP-1 Lucia monocytes. To be noted: for Rel. Slope: HS relative to LXA4 (1); for Efficacy Rel. Eff.: Imax relative to LXA4 (1); for reduction of LPS-induced NF-κB-driven luciferase activity: approximate extent; for reduction of LPS-induced NF-κB-driven luciferase activity / Imax (%): 1 pM–1 μM; for Imax (%): maximal % inhibition of LPS (50 ng/mL)-stimulated NF-κB luciferase activity, 30 min pretreatment; for (Single component) Rel. Score: Rel. Sl. / (Single component) Rel. Score: Rel. Pot.: score relative to LXA4 (1); for IC50: Homo sapiens, THP-1, read-out: Potency IC50; for Potency Rel. Pot.: IC50 relative to LXA4 (1); for (Aggregate) Rel. PD Score: sum of efficacy, potency, slope scores relative to LXA4 (1). Here is the method:
Mycoplasma-free THP-1-Lucia NF-κB cells were grown in an RPMI 1640 (Gibco) medium containing 2 mM L-glutamine, 1.50 g/L sodium bicarbonate, 4.50 g/L glucose, 10 mM N-(2-hydroxyethyl)piperazine-N′-ethanesulfonic acid (HEPES), and 1 mM sodium pyruvate. Then, 10% heat-inactivated fetal bovine serum (FBS) (30 min at 56 °C), 100 μg/mL Normocin, and Pen-Strep (50 U/mL to 50 μg/mL) were also added to the growth media. As THP-1-Lucia cells were resistant to Zeocin, the latter was used as a selective antibiotic (a high dose, i.e., 100 μg/mL, was alternated every 2 weeks with a low dose, i.e., 10 μg/mL).
(§1) LXA41 and all of the tested sLXms were dissolved in ethanol and further diluted in a culture medium (final ethanol concentration 0.1%; equivalent concentrations were used as the vehicle control). Prior to in vitro experiments, THP-1-Lucia NF-κB cells were harvested and plated at 1 × 10^5 cells/well on 96-well plates and left to settle in the incubator at 37 °C, 95% humidity, and 5% CO2, in 0.1% FBS-containing media, pretreated for 30 min with increasing doses of LXA41, sLXms (from 10^–12 to 10^–6 M), or appropriate controls, followed by stimulation with 50 ng/mL LPS for 24 h.
NFκB activity was monitored in the human THP-1 monocytic leukemia cell line containing a stably integrated NF-κB-inducible Lucia reporter construct (as previously reported).[21] When stimulated with LPS, the transcription factor NF-κB is activated, upregulating the synthesis of proinflammatory mediators, thus bringing about an inflammatory response. In these cells, NF-κB activation is linked to a […] luciferase gene and can be measured using luminescence.
Heat-killed listeria monocytogenes (HKLM) (10^8/mL) was used as a positive control.[28] The levels of NF-κB-induced Luciferase were then measured in a culture supernatant using QUANTI-Luc as the detection reagent, and measurements were taken on a bioluminescence reader.
After 24 h, the levels of NF-κB-induced Lucia were assayed in a cell culture supernatant using QUANTI-Luc, as a detection reagent, on a bioluminescence reader (Synergy HT, BioTek Instruments, Inc. Vermont). Aliquots of the supernatant were retained for subsequent cytokine and LDH assays. Cellular proteins were extracted with a radioimmunoprecipitation assay (RIPA) buffer (Thermo Fisher, Ireland), supplemented with protease inhibitors (Sigma-Aldrich, Ireland). Lysates were clarified by centrifugation (3200g, 10’, 4 °C) to remove cell debris, and the cell protein level was quantified by performing a bicinchoninic acid (BCA) assay (as per the manufacturer’s instructions) reading the protein absorbance at 570 nm, using a spectrophotometer (SPECTRAMAX M2, Molecular Devices (U.K.) Limited). A “relative luminescence unit” (RLU) was obtained using the average value of the lum/abs ratio of two replicates.
The “coding” of the heat-map indicates the arbitrary criteria to assign points to each single PD component (efficacy = Imax or Emax; potency = IC50 or EC50; slope = HS) to generate a final (aggregate) relative PD score. […] If a single PD component was equal to the reference level (x = 1), then the single-component relative score was arbitrarily set to 0 (gray). If a single PD component was smaller than the reference level (x < 1), then the single-component relative score was arbitrarily set to −1 (light red) or −2 (dark red). If the curve of a single PD component was best fitting to a flat line (x = 0), then the single-component relative score was arbitrarily set to −4 (purple) (Table S1).

A further series has as its system IL-6. As to the kind of experiment: LPS-induced IL-6 release from THP-1 Lucia monocytes (multiplex electrochemiluminescence). Here is the method:
as §1, with “h. Untreated (Unt) or vehicle-treated (Veh) cells were used as negative controls; 1 pM (1R)-5, the (1R)-epimer of the benzo-mimetic, was used as a positive control for any aromatic mimetic; and, finally, we compared the observed effects to the conventional glucocorticoid dexamethasone (Dex) treatment, at 1 μM.” for “h.”
(§2) After 24 h of exposure to LXA41, sLXms, or vehicle, followed by LPS stimulation (50 ng/mL), as described above, THP-1-Lucia NF-κB-cell supernatants were collected and cleared by centrifugation. Concentrations of IFN-γ, IL-1β, IL-6, IL-8, IL-10, IL-12p70, and TNF-α in culture supernatants were assessed by electro-chemi-luminescent detection, using a commercially available human 96-well plate “multiplex” (several analytes in the same well) kit for tissue culture samples, according to the manufacturers’ guidelines.
(§3) The “coding” of the heat-map indicates the arbitrary criteria to assign points to each single PD component (efficacy = Imax or Emax; potency = IC50 or EC50; slope = HS) to generate a final (aggregate) relative PD score. If a single PD component was greater than the reference level (x > 1), then the single-component relative score was arbitrarily set to +1 (light green) or +2 (dark green). If a single PD component was equal to the reference level (x = 1), then the single-component relative score was arbitrarily set to 0 (gray). If a single PD component was smaller than the reference level (x < 1), then the single-component relative score was arbitrarily set to −1 (light red) or −2 (dark red). If the curve of a single PD component was best fitting to a flat line (x = 0), then the single-component relative score was arbitrarily set to −4 (purple) (Table S1).

For the next series, the system named is IL-1β. As to the kind of experiment: LPS-induced IL-1β release from THP-1 Lucia monocytes (multiplex electrochemiluminescence). The protocol: as §1, with “h. Untreated (Unt) or vehicle-treated (Veh) cells were used as negative controls; 1 pM (1R)-5, the (1R)-epimer of the benzo-mimetic, was used as a positive control for any aromatic mimetic; and, finally, we compared the observed effects to the conventional glucocorticoid dexamethasone (Dex) treatment, at 1 μM.” for “h.”
as §2, §3

The subject of the next series is IFNγ. As to the kind of experiment: LPS-induced IFNγ release from THP-1 Lucia monocytes (multiplex electrochemiluminescence). Here is the method:
as §1, with “h. Untreated (Unt) or vehicle-treated (Veh) cells were used as negative controls; 1 pM (1R)-5, the (1R)-epimer of the benzo-mimetic, was used as a positive control for any aromatic mimetic; and, finally, we compared the observed effects to the conventional glucocorticoid dexamethasone (Dex) treatment, at 1 μM.” for “h.”
as §2, §3

The test system of series [1] is THP-1 LUCIA monocytes. As to the kind of experiment: Intrinsic cytotoxicity: LDH release without LPS. To be noted: for Intrinsic Toxicity Level: LDH-associated level of cytotoxicity (high / moderate / low); for Intrinsic Toxicity TC50 (pM): half-maximal intrinsic LDH-associated toxic activity, no LPS. The protocol: We investigated the potential cytotoxicity of all candidate sLXms by assaying LDH release.[50] The response to LPS was arbitrarily set to 100%, and values were expressed relative to this. As previously reported by others, LPS provokes LDH release.[51] […] Ultimately, untreated cells defined the spontaneous cell release thresholds.
Lactate dehydrogenase (LDH) was assayed in cell supernatants to investigate possible cytotoxicity of the lead compound. LDH is rapidly released into the culture medium after disruption of the plasma membrane.[67],[69] After 24 h of exposure to sLXms, vehicle, or controls, followed by LPS stimulation, as described above, THP-1-Lucia NF-κB-cell supernatants were collected and LDH was assayed. Cytotoxicity was evaluated relative to vehicle controls. Maximum releasable LDH was determined in cells lysed with 2% Triton-X-100 (Sigma-Aldrich, Ireland). LDH levels were assessed by reading the absorbance at 490 nm (protein) and 690 nm (background noise), using a spectrophotometer (SPECTRAMAX M2, Molecular Devices (U.K.) Limited).
In general terms: LDH in the medium is a marker of cell lysis.

The test system of series [2] is THP-1 LUCIA monocytes. As to the kind of experiment: In vitro safety study: Safety index (Si), activity versus toxicity. The conditions noted are these: for IC50: Homo sapiens, THP-1, highest IC50 among the LPS-challenged assays (NF-κB activity, cytokine, LDH release), read-out: Extrinsic Activity hIC50; for Safety Index TC50/IC50: ratio of intrinsic TC50 to extrinsic hIC50. Here is the method: A postanalysis “safety study” was conducted on all QNX-sLXms. For each tested compound, we calculated an in vitro “Safety index” (Si) by relating its “anti-inflammatory half-maximal activity” (the highest dose among the IC50 of the extrinsic LPS-challenged phenotype: NF-κB activity, proinflammatory cytokine, and LDH release) to its intrinsic “toxicity” (expressed as the relative half-maximal LDH-associated cytotoxicity). The generated Si is potentially predictive of a translational “therapeutic” range: the higher the Si, the safer the molecule is. As summarized in Table S4, Si values from all tested compounds fall in a broad range (7–50).

[3] abbreviates: Homo sapiens, THP-1, LPS 50 ng/mL, 24 h.
The mark [4] stands for this setting: concentration–response, LPS 50 ng/mL, 24 h.

For `CCCCC[C@H](O)c1nc2ccccc2nc1/C=C/[C@@H](O)[C@@H](O)CCCC(=O)OC` [(S)-6, Methyl (5S,6R,E)-5,6-Dihydroxy-8-(3-((S)-1-hydroxyhexyl)quinoxalin-2-yl)oct-7-enoate], in the series with NF-κB, the “Rel. Slope” value is given as 0.47, the “Efficacy Rel. Eff.” value came out at 1.42, the “reduction of LPS-induced NF-κB-driven luciferase activity” value (shortened to “reduction”) is 25–35% and the “(Single component) Rel. Score: Rel. Sl.” value was 1 (1 < x < 10). In addition, the “Imax (%)” value in the series with NF-κB (24 h) amounted to 34 ± 9%. Further, the IC50 with IL-6 (setting [3]) amounted to 0.001 nM. Further, in the series with IL-6 (setting [4]), the “Imax, IL-6 release” value turned out to be 98 ± 1%. Besides, in the series on IL-6 (relative to LXA4 (1)), the “PD score, IL-6 release” value was “+2” and the “rel. slope, IL-6 release” value was found to be 2.4. The “Imax, IL-1β release” value in the series with IL-1β (setting [4]) is listed as “completely lost the protective effect”. Also, in the series with IL-1β (relative to LXA4 (1)), the “PD score, IL-1β release” value is reported as −6. Moreover, in the series on IFNγ (setting [3]), the IC50 is 2 nM. For the same compound, in the series with IFNγ (setting [4]), the “Imax, IFNγ release” value was determined as 74 ± 4%. For the same compound, in the series with THP-1 LUCIA monocytes [1], the “Intrinsic Toxicity Level” value is recorded as “Low-Mod” and the “Intrinsic Toxicity TC50 (pM)” value worked out at 200 pM. For the same compound, in the series on THP-1 LUCIA monocytes [2], the IC50 stood at 0.02 nM and the “Safety Index TC50/IC50” value stood at 10.
On to `CCCCCCC[C@@H](O)c1nc2ccccc2nc1/C=C/[C@@H](O)[C@@H](O)CCCC(=O)OC` [(R)-8, Methyl (5S,6R,E)-5,6-Dihydroxy-8-(3-((R)-1-hydroxyoctyl)quinoxalin-2-yl)oct-7-enoate], for which, in the series on NF-κB, the “Rel. Slope” value was 0.49, the “Potency Rel. Pot.” value was found to be 1.5, the “Efficacy Rel. Eff.” value amounted to 0.96 and the “reduction” value is on record as 10–20%. In the series with NF-κB, the “(Single component) Rel. Score: Rel. Pot.” value was 1 (1 < x < 5), the “(Single component) Rel. Score: Rel. Sl.” value is reported as -1 (0.01 < x < 1) and the “(Aggregate) Rel. PD Score” value is listed as 0. For the same compound, in the series with NF-κB (LPS 50 ng/mL, 24 h), the IC50 was 0.04 nM and the “IC50 (range in words)” value is recorded as ““pM” range”. Moreover, the “Imax (%)” value in the series with NF-κB (24 h) turned out to be 23 ± 7%. In addition, the “PD score, IFNγ release” value with IFNγ (relative to LXA4 (1)) was “negative PD scores”. In the series on THP-1 LUCIA monocytes [1], the “Intrinsic Toxicity Level” value is “Low-Mod” and the “Intrinsic Toxicity TC50 (pM)” value is reported as 10,000 pM. In the series with THP-1 LUCIA monocytes [2], the IC50 is 0.2 nM and the “Safety Index TC50/IC50” value is reported as 50.
As for `CCCCC[C@H](O)c1nc2ccccc2nc1/C=C/[C@H]1OC(C)(C)O[C@H]1CCCC(=O)OC` [(S)-17, Methyl 4-((4S,5R)-5-((E)-2-(3-((S)-1-Hydroxyhexyl)quinoxalin-2-yl)vinyl)-2,2-dimethyl-1,3-dioxolan-4-yl)butanoate], in the series on NF-κB, the “Rel. Slope” value was found to be 0, the “Potency Rel. Pot.” value is on record as 24, the “Efficacy Rel. Eff.” value came out at 0.79 and the “reduction” value was “least effective”. Further, in the series with NF-κB, the “(Single component) Rel. Score: Rel. Pot.” value was 2 (x ≥ 5), the “(Single component) Rel. Score: Rel. Sl.” value is -4 (x = 0) and the “(Aggregate) Rel. PD Score” value is on record as -3. Further, in the series with NF-κB (LPS 50 ng/mL, 24 h), the IC50 amounted to 0.003 nM. The “Imax (%)” value with NF-κB (24 h) stood at 19 ± 3%. Also, the “Slope HS (Hill–Slope)” value with NF-κB (slope of concentration–response curve) worked out at 0. In addition, in the series on THP-1 LUCIA monocytes [1], the “Intrinsic Toxicity TC50 (pM)” value was 100 pM. Besides, in the series on THP-1 LUCIA monocytes [2], the IC50 was determined as 0.003 nM and the “Safety Index TC50/IC50” value came to 33.
